# Assay results published in the supplement of paper PMC10307832.
# Tests used:
# Experiment in all cases: relative viability (nuclei count vs DMSO), 5 days (fraction); higher = more cells survive
# Shikonin + Palbociclib = compound: CC(C)=CC[C@@H](O)C1=CC(=O)c2c(O)ccc(O)c2C1=O [Shikonin] + CC(=O)c1c(C)c2cnc(Nc3ccc(N4CCNCC4)cn3)nc2n(C2CCCC2)c1=O [Palbociclib] (partner 0.5 µM)
# In short: (§1)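 Lung cancer cell lines in 1536-well plates got either a single drug or a fixed anchor-drug dose together with five library-drug doses (not always all listed) in √10 steps, by pin tool, on the day after seeding. Nuclei were counted after 5 days, and relative viability is the treated-to-vehicle ratio of nuclei counts. Values are medians of duplicate plates.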
# Shikonin + Navitoclax = compound: CC(C)=CC[C@@H](O)C1=CC(=O)c2c(O)ccc(O)c2C1=O [Shikonin] + CC1(C)CCC(c2ccc(Cl)cc2)=C(CN2CCN(c3ccc(C(=O)NS(=O)(=O)c4ccc(N[C@H](CCN5CCOCC5)CSc5ccccc5)c(S(=O)(=O)C(F)(F)F)c4)cc3)CC2)C1 [Navitoclax] (partner 0.5 µM)
# In short: as §1
# [1] = compound: CC(C)N(CCCNC(=O)Nc1ccc(C(C)(C)C)cc1)C[C@H]1O[C@@H](n2ccc3c(N)ncnc32)[C@H](O)[C@@H]1O + C[C@@H](Oc1cc(-c2cnn(C3CCNCC3)c2)cnc1N)c1c(Cl)ccc(F)c1Cl [Crizotinib] (partner 1 µM)
# In short: as §1
# [2] = compound: CC(C)N(CCCNC(=O)Nc1ccc(C(C)(C)C)cc1)C[C@H]1O[C@@H](n2ccc3c(N)ncnc32)[C@H](O)[C@@H]1O + C[C@]1(O)C[C@@H](c2nc(-c3ccc4ccc(-c5ccccc5)nc4c3)c3c(N)nccn32)C1 [Linsitinib] (partner 1 µM)
# In short: as §1
Cell Line,relative viability (Shikonin + Palbociclib; first compound 0.01 µM),relative viability (Shikonin + Palbociclib; first compound 0.1 µM),relative viability (Shikonin + Palbociclib; first compound 0.3162 µM),relative viability (Shikonin + Palbociclib; first compound 1 µM),relative viability (Shikonin + Navitoclax; first compound 0.01 µM),relative viability (Shikonin + Navitoclax; first compound 0.1 µM),relative viability (Shikonin + Navitoclax; first compound 0.3162 µM),relative viability (Shikonin + Navitoclax; first compound 1 µM),relative viability ([1]; first compound 0.08 µM),relative viability ([1]; first compound 0.253 µM),relative viability ([1]; first compound 0.8 µM),relative viability ([1]; first compound 2.53 µM),relative viability ([1]; first compound 8 µM),relative viability ([2]; first compound 0.08 µM),relative viability ([2]; first compound 0.253 µM),relative viability ([2]; first compound 0.8 µM),relative viability ([2]; first compound 2.53 µM),relative viability ([2]; first compound 8 µM)
LU99A,0.457,0.486,0.348,0.38,0.924,0.88,0.833,0.766,0.661,0.571,0.513,0.524,0.498,0.516,0.405,0.521,0.582,0.563
LXF-289,0.594,0.707,0.618,0.622,1.01,0.873,0.96,0.967,0.781,0.893,0.834,0.837,0.78,0.994,1.03,0.951,1.01,0.928
NCI-H23,0.597,0.543,0.623,0.573,0.821,0.748,0.935,0.781,0.487,,0.506,0.694,0.534,0.57,,0.556,0.577,0.592
NCI-H322M,0.479,0.446,0.477,0.489,1.23,1.21,1.32,1.27,0.912,1.04,0.802,0.969,0.962,0.863,0.81,0.877,0.861,0.894
NCI-H441,0.225,0.219,0.225,0.231,0.615,0.76,0.742,0.396,0.815,0.872,1.09,0.714,0.673,0.565,0.557,0.602,0.611,0.636
NCI-H460,0.166,0.227,0.2,0.222,1.16,1.49,1.25,1.19,0.827,1.1,0.958,0.88,0.696,0.722,0.775,0.627,0.66,0.678
NCI-H520,0.191,0.206,0.229,0.208,,1.1,1.19,1,0.789,0.548,0.858,0.707,0.733,0.943,0.87,0.882,1,0.894
NCI-H647,0.487,0.325,0.38,0.361,0.991,0.886,1.25,1.02,1.01,,1.05,1.15,0.953,1.12,,1.17,1.13,1.03
NCI-H727,0.713,0.603,0.678,0.67,0.405,0.502,0.366,0.295,0.767,0.837,0.899,0.93,0.854,0.333,0.281,0.286,0.359,0.209
